Entries after “also recorded” stand apart in the source; their conditions may differ.
Legend:
human recombinant BHMT [1] = biological target: T1, human recombinant BHMT (Homo sapiens, UniProt Q93088); assay: BHMT inhibition assay; assay type: biochemical; conditions: for inhibition of BHMT, in words: qualitative statement; for % Inhibition (average of triplicates): 20 μM inhibitor, 0.25 mM betaine, 0.1 mM DL-homocysteine, pH 7.5, 37 °C
T1 sequence (Q93088 1-406): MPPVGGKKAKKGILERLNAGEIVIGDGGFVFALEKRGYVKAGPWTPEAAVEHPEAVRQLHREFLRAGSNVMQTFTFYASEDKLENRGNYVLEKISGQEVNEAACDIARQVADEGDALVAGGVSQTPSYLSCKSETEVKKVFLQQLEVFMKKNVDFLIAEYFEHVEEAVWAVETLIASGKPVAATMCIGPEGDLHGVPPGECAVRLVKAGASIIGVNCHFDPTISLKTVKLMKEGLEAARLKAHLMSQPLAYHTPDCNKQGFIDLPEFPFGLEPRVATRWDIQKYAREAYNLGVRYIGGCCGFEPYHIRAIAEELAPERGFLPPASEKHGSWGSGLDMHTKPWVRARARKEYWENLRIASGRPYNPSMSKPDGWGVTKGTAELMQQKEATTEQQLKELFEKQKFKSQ

[2] = 1H and 13C NMR pH titration; assay type: physicochemical; conditions: NMR titration over broad pH range
human recombinant BHMT [3] = biological target: T1, human recombinant BHMT; assay: Isothermal titration calorimetry of inhibitor binding to BHMT; conditions: ITC
[4] = pH 7.5, read-out: % Inhibition (average of triplicates)

Structure (SMILES) | inhibition of BHMT, in words (human recombinant BHMT [1]) | further results
NC(CCSSCCCC(=O)O)C(=O)O (racemic) [Compound 5, (RS)-2-Amino-4-[(3-carboxypropyl)disulfanyl]butanoic acid] | very weak inhibitor | 
NC(CCSCSCCC(=O)O)C(=O)O (racemic) [Compound 6, (RS)-2-Amino-4-[(2-carboxyethylthio)methylthio]butanoic Acid] | moderate inhibitory potency | 
NC(CCCSCCCC(=O)O)C(=O)O (racemic) [Compound 7, (RS)-2-Amino-5-(3-carboxypropylthio)pentanoic Acid] | low inhibitory potency | 
NC(CCOCCCCC(=O)O)C(=O)O (racemic) [Compound 8, (RS)-5-(3-Amino-3-carboxypropoxy)pentanoic Acid] | almost inactive | 
NC(CC[Se]CCCCC(=O)O)C(=O)O (racemic) [Compound 9, (RS)-5-(3-Amino-3-carboxypropylselanyl)pentanoic Acid] | strongly inhibited | fold weaker than compound 1 (human recombinant BHMT [1]; compared with reference inhibitor 1): 5 fold
NC(CCCCCCCC(=O)O)C(=O)O (racemic) [Compound 10, (RS)-2-Aminodecanedioic Acid] | almost inactive | 
C[N+](C)(CSCCC(N)C(=O)O)CC(=O)[O-] (racemic) [Compound 11, (RS)-2-{[(3-Amino-3-carboxypropylthio)methyl]dimethylammonium}acetate] |  | % Inhibition (average of triplicates) (human recombinant BHMT [1]): completely inactive
C[N+](C)(CCSCCC(N)C(=O)O)CC(=O)[O-] (racemic) [Compound 12, (RS)-2-{[2-(3-Amino-3-carboxypropylthio)ethyl]dimethylammonium}acetate] |  | % Inhibition (average of triplicates) (human recombinant BHMT [1]): very weak inhibition
CN(CCSCCC(N)C(=O)O)CC(=O)O (racemic) [Compound 13, (RS)-2-Amino-4-{2-[(carboxymethyl)(methyl)amino]ethylthio}-butanoic Acid] | promising, but still moderate, inhibition | pK2 of secondary/tertiary amino group [2]: ~9.5
NC(CCSCCNCC(=O)O)C(=O)O (racemic) [Compound 16, (RS)-2-Amino-4-[2-(carboxymethylamino)ethylthio]butanoic Acid] |  | pK2 of secondary/tertiary amino group [2]: ~9.5
C[N+](C)(CCCSCCC(N)C(=O)O)CC(=O)[O-] (racemic) [Compound 18, (RS)-2-{[3-(3-Amino-3-carboxypropylthio)propyl]dimethylammonio}acetate] | did not inhibit BHMT at all | 
CN(CCCSCCC(N)C(=O)O)CC(=O)O (racemic) [Compound 19, (RS)-2-Amino-4-{3-[(carboxymethyl)(methyl)amino]propylthio}butanoic Acid] | only a modest inhibitor | 
C[C@@H](CCSCC[C@@H](N)C(=O)O)CC(=O)O (racemic) [Compound 20] | highly potent inhibitors; also recorded: equipotent | 
CC(C)(CCSCCC(N)C(=O)O)CC(=O)O (racemic) [Compound 21] | highly potent inhibitors | enthalpic contribution ΔH (human recombinant BHMT [3]; 25 °C, pH 7.5): -29.5 ± 1.2 kcal/mol; entropic contribution −TΔS (human recombinant BHMT [3]; 25 °C, pH 7.5): 19.6 ± 1.3 kcal/mol; association constant Ka (human recombinant BHMT [3]; 25 °C, pH 7.5, S-enantiomer): (2.0 ± 0.6) × 10^7 M^−1; stoichiometry of the main interaction (human recombinant BHMT [3]; inhibitor per BHMT monomer): 1.1 ± 0.1
NC(CCSCCCCC(=O)O)C(=O)O (stereo not shown) [Compound 1, reference compound] |  | inhibition at 1 µM (human recombinant BHMT [1]; [4]): 97.6%; inhibition at 20 µM (human recombinant BHMT [1]; [4]): 100%

From publication PMC2744866 (Journal of medicinal chemistry, 2009)
